One assay has as its system Jurkat cells. In words: Jurkat cell growth inhibition. Type of assay: cell-based, human. Here is the method: In Table 4 in cell GI50 values for the growth inhibition of Jurkat cells are reported. The GI50 value is the concentration of a test compound needed to produce 50% growth inhibition in the cell type listed. In Table 4 the isolated yield of each synthetic step for the synthesis of corresponding compounds are also reported.
(§1) Panc-1 cells (Pancreatic cancer cell line) and Jurkat cells (T-cell leukemia) were treated with 12.5 μM of P5-H6 or 12.5 μM of mP5-H6a for 72 hours. The cell number was counted as described in Example 5.
(§2) Cell viability was determined by Cell Counting Kit-8 (CCK-8, Dojindo, Kumamoto, Japan) as described previously (31). Cell viability was calculated relative to the DMSO control. Cell cycle profile was analyzed by flow cytometry as described previously (32).

For a further assay, the target named is T1, GGTase-I (Rattus norvegicus, UniProt P53610+Q04631).
T1 construct: purchased JENA BIOSCIENCE
In words: In vitro GGTase-I enzyme assay (IC50, kinetics). The assay is classed as biochemical. Here is the method:
The GGTase-I assay was carried out using RhoA as a substrate protein, GGTase-I (JENA Bioscience) and [3H]geranylgeranyl pyrophosphate. Incubation was for 30 min at 37° C. GGTase-II (or RabGGTase) assay was carried out using YPTI as a substrate protein, GGTase-II (Calbiochem, San Diego, Calif.) plus REP1 (Calbiochem) and [3H]geranylgeranyl pyrophosphate. Incubation was for 30 min at 37° C. FIGS. 20D-20F show the three dimensional structure of GGTase I (D), FTsse (E) and GGTase II (F) which can be obtained from X-ray diffraction studies of protein crystals.
(§3) GGTase-I and FTase activities were determined by following the incorporation of radiolabeled isoprenoid [^3H]-geranylgeranyl or [^3H]-farnesyl into substrate proteins. FTase or GGTase-I (50 nM) were used to initiate reactions containing 0.4 μM of [^3H]-FPP or 0.5 μM of [^3H]-GGPP and 2 μM of MBP-tagged substrates (K-Ras4B for FTase; RhoA for GGTase-I) in 20 μl of buffer {50 mM Tris-HCl (pH 7.5), 10 mM MgCl2, […] and 5 mM DTT}. Inhibitors were added at the indicated concentrations. The final DMSO concentration was 2.5% for all samples.
(§4) Reactions were carried out for 10 min at 30° C. The reaction mixture was spotted onto a filter paper, treated with 10% trichloroacetic acid (TCA) followed by ethanol and acetone washing. The filter was counted using a scintillation counter. Kinetic assays in which the GGPP concentration was varied employed fixed concentrations of GGTase-I and RhoA, and reactions were carried out for 5 min. Similarly, fixed concentrations of GGTase-I and GGPP were used when the amount of RhoA was varied.

The next assay deals with Aspc-1. Briefly: Aspc-1 cell growth inhibition. Type of assay: cell-based, human. The following applies: no unit printed there. The method, then:
(§5) In FIG. 9-24 in vitro IC50 values for the GGTase I activity are reported. In Tables 7-15 in cell GI50 values for the growth inhibition of a variety of cancer cell lines (e.g., Jurkat, K562, MDA-MB-231, BT474, MCF7, MiaPaCa2, Aspc-1, Panc-1, Capan-2, CFpac-1, and MCF10a) are reported.
as §2

The next assay relates to BT474. Briefly: BT474 cell growth inhibition. Type of assay: cell-based, human. The following applies: no unit printed there. Here is the method: as §5, §2
The next assay concerns MCF10a. Briefly: MCF10a cell growth inhibition. Type of assay: cell-based.
From the text: as §5

For a further assay, the system named is Panc-1. Briefly: Panc-1 cell growth inhibition. The assay is classed as cell-based, human. As to conditions: no unit printed there. The method, then: as §5, §1, §2
Another assay concerns Capan-2. Briefly: Capan-2 cell growth inhibition. Type of assay: cell-based, human. As to conditions: no unit printed there. The method, then:
as §5, §2

Another assay deals with K562 cells. Briefly: K562 cell growth inhibition. Type of assay: cell-based, human. The method, then: K562 cells are a cell line of human erythroleukemia cells. The K562 cells were treated with P3-E5, P5-H6 or GGTI-298 (a known GGTI compound illustrated in FIG. 27) for 72 hours and then cell number was counted using cell counting kit-8 (Dojindo, Gaithersburg, Md.). Cell viability relative to the DMSO control and the known GGTI compound is plotted in FIG. 23.
as §2

In a further assay the test system is MCF7. In words: MCF7 cell growth inhibition. Type of assay: cell-based, human. Here is the method:
as §5, §2

For another assay, the system named is MiaPaCa2. In words: MiaPaCa2 cell growth inhibition. The assay is classed as cell-based, human. As to conditions: no unit printed there. Here is the method: as §5, §2
Another assay has as its system CFpac-1. Briefly: CFpac-1 cell growth inhibition. The assay is classed as cell-based, human. As to conditions: no unit printed there. The method, then: as §5, §2
A further assay concerns MDA-MB-231. Briefly: MDA-MB-231 cell growth inhibition. The assay is classed as cell-based, human. As to conditions: no unit printed there. The method, then: as §5, §2
In the next assay the target is T2, FTase (Rattus norvegicus, UniProt Q02293+Q04631).
T2 construct: purchased JENA BIOSCIENCE
Briefly: In vitro FTase assay (K-Ras4B substrate, [3H]FPP). Type of assay: biochemical. As to conditions: P3-D9, P3-E5: concentration increased to 100 (unit not given).
From the text: To further characterize the pilot library, inhibitors of protein farnesyltransferase were identified. This was accomplished by using K-Ras4B as a substrate protein, tritiated farnesylpyrophosphate ([^3H]FPP) and protein farnesyltransferase. See Finegold, A. A., Johnson, D. I., Farnsworth, C. C., Gelb, M. H., Judd, S. R., Glomset, J. A. and Tamanoi, F. (1991) Protein geranylgeranyltransferase of Saccharomyces cerevisiae is specific for Cys-Xaa-Xaa-Leu motif and requires the CDC43 gene product but not the DPR1 gene product. Proc. Natl. Acad. Sci. USA 88, 4448-4452. […] On the other hand, the structure of the compounds P1-F11, P2-B7 and P2-E9 resemble those of GGTIs. The FTI P1-F11 resembles the GGTI P1-F10, while the FTI P2-B7 resembles the GGTI P2-C10. The FTI P2-E9 is similar to the GGTI P2-G3. Similarity of some GGTI and FTI compounds may point to common structural features between the two closely related enzymes. As described before, FTase and GGTase I have similar three-dimensional structures and a shared alpha subunit. On the other hand, FTase specific inhibitors may recognize a region(s) that is different between the two enzymes.
Examples 2-8 illustrate assays of bioactivity. These methods are applicable to the compounds of the present invention having the particular linkers and scaffolds described herein, to determine their activity. […] Varying concentrations of the two compounds were added to each enzyme reaction. The FTase (protein farnesyltransferase) assay was carried out using K-Ras4B as a substrate protein, FTase (JENA Bioscience, San Diego, Calif.) and [3H]farnesyl pyrophosphate. Incubation was for 30 min at 37° C.
as §3, §4

Setting [1] is: Homo sapiens, Jurkat, Tables 4, 6, 7, read-out: Jurkat cell GI50.
Where [2] appears, read: Homo sapiens, Jurkat, Tables 8-15, no unit printed there, read-out: Jurkat GI50.
The mark [3] stands for this setting: Tables 3, 5, 7, read-out: In vitro (enzyme assay) IC50, GGTase I.
Where [4] appears, read: Tables 8-15, no unit printed there (Table 7 head: μM unless otherwise specified), read-out: In vitro (GGTase I IC50).
The mark [5] stands for this setting: Homo sapiens, ASPC1, Tables 8-15.
The mark [6] stands for this setting: Homo sapiens, BT-474, Tables 8-15.
[7] abbreviates: Homo sapiens, MCF-10A, Tables 8-15, no unit printed there.
The mark [8] stands for this setting: Homo sapiens, PANC-1, Tables 8-15.
[9] abbreviates: Homo sapiens, Capan-2, Tables 8-15.
Where [10] appears, read: Homo sapiens, K562, Tables 8-15, no unit printed there.
Where [11] appears, read: Homo sapiens, MCF7, Tables 8-15, no unit printed there.
[12] abbreviates: Homo sapiens, MIA PaCa-2, Tables 8-15.
[13] abbreviates: Homo sapiens, CFPAC-1, Tables 8-15.
Where [14] appears, read: Tables 4, 6, 7, read-out: Jurkat cell GI50.
Setting [15] is: Tables 8-15, no unit printed there, listed as P61C4.

Read-outs that look alike come from different tables or passages of the source.

Take `Cc1ccccc1S(=O)(=O)N1[C@@H](c2ccc(Cl)cc2)C(C(=O)N[C@@H](Cc2ccccc2)C(N)=O)=C[C@H]1C(C)CC(C)(C)C` (some centres unmarked) [P61-C03]: the GI50 with Jurkat cells (setting [1]) turned out to be 9.76 µM; in the assay on Jurkat cells (setting [2]) it was 9.79 µM; in the assay on Aspc-1 (setting [5]) it was 11.4 µM; with BT474 (setting [6]), 10.8 µM; in the assay with MCF10a (setting [7]) it was 9.16 µM; with Panc-1 (setting [8]) it was 8.85 µM. Also, the GI50 in the assay on Capan-2 (setting [9]) is 10.5 µM; in the assay with K562 cells (setting [10]), 6.3 µM; in the assay on MCF7 (setting [11]), 3.1 µM; in the assay with MiaPaCa2 (setting [12]), 7.17 µM; with CFpac-1 (setting [13]) it was 1.25 µM. The IC50 on GGTase-I (setting [3]) and on GGTase-I (setting [4]) was greater than 10 µM each time.

With `Cc1ccccc1S(=O)(=O)N1[C@@H](c2ccc(Cl)cc2)C(C(=O)N[C@@H](CC(C)C)C(N)=O)=C[C@H]1C(C)(C)C` [drawing 164], the GI50 with Aspc-1 (setting [5]) was 11.4 µM; with Panc-1 (setting [8]), 6.45 µM; in the assay on Capan-2 (setting [9]), 6.69 µM; in the assay on MiaPaCa2 (setting [12]), 7.24 µM; in the assay on CFpac-1 (setting [13]), less than 1.25 µM.

With `Cc1ccccc1S(=O)(=O)N1[C@@H](c2ccc(Cl)cc2)C(C(=O)NO)=C[C@H]1C(C)(C)C`, the GI50 with Jurkat cells (setting [1]) is 4.02 µM; with MCF10a (Homo sapiens, MCF-10A, Table 7), 11.4 µM; in the assay with K562 cells (Homo sapiens, K562, Table 7) it was 10.3 µM; with MCF7 (Homo sapiens, MCF7, Table 7), 2.52 µM. Further, the IC50 on GGTase-I (setting [3]) was 1.3 µM.

In the case of `CC(C)(C)[C@@H]1C=C(C(=O)N[C@@H](Cc2ccccc2)C(N)=O)[C@H](c2ccc(Br)cc2)N1S(=O)(=O)c1ccccc1Cl` [P61-B09], the GI50 in the assay on Jurkat cells (setting [14]) stood at 8.75 µM; with Jurkat cells (Tables 8-15, no unit printed there, listed as P61B9, read-out: Jurkat GI50), 8.75 µM; in the assay with Aspc-1 (Tables 8-15, listed as P61B9), 16.8 µM; in the assay with MDA-MB-231 (Tables 8-15, listed as P61B9) it was 11.3 µM; in the assay with BT474 (Tables 8-15, listed as P61B9) it was 9.9 µM; in the assay on Panc-1 (Tables 8-15, listed as P61B9) it was 12 µM. Besides, the GI50 in the assay on Capan-2 (Tables 8-15, listed as P61B9) worked out at 10.7 µM; in the assay with K562 cells (Tables 8-15, no unit printed there, listed as P61B9), 9.18 µM; with MiaPaCa2 (Tables 8-15, listed as P61B9), 12.1 µM; with CFpac-1 (Tables 8-15, listed as P61B9), 6.3 µM. The IC50 at GGTase-I (setting [3]) and at GGTase-I (setting [4]) was greater than 10 µM each time.

On to `Cc1ccccc1S(=O)(=O)N1[C@@H](c2ccc(Cl)cc2)C(C(=O)N[C@@H](Cc2ccccc2)C(N)=O)=C[C@H]1C(C)CC(C)(C)C` (some centres unmarked) [P61-C04], for which the GI50 with Jurkat cells (setting [14]) was 6.4 µM; in the assay on Jurkat cells (Tables 8-15, no unit printed there, listed as P61C4, read-out: Jurkat GI50) it was 6.4 µM; in the assay with Aspc-1 (Tables 8-15, listed as P61C4), 8.61 µM; in the assay on BT474 (Tables 8-15, listed as P61C4), 10.1 µM; in the assay with MCF10a (setting [15]), 11.3 µM; in the assay with Panc-1 (Tables 8-15, listed as P61C4), 8.6 µM. The GI50 with Capan-2 (Tables 8-15, listed as P61C4) turned out to be 7.5 µM; with K562 cells (setting [15]), 5.95 µM; in the assay with MCF7 (setting [15]) it was 4.71 µM; with MiaPaCa2 (Tables 8-15, listed as P61C4), 6.7 µM. In addition, the IC50 at GGTase-I (setting [3]) and at GGTase-I (setting [4]) was greater than 50 µM in each case.

On to `Cn1cncc1CN1C[C@@H](Cc2ccccc2)N(S(=O)(=O)c2cccs2)Cc2cc(C#N)ccc21` [BMS225975, reference compound], for which, at GGTase-I, the “inhibition of GGTase I (FIG. 16 controls)” value is “does not inhibit GGTase I”. In addition, on FTase, the “inhibition of FTase activity (FIG. 16)” value was “inhibits FTase”.

In the case of `Cc1ccccc1S(=O)(=O)N1C(c2cccc(Cl)c2)C(C(=O)N[C@@H](CC(C)C)C(N)=O)=CC[C@H]1c1ccc(Cl)cc1` (some centres unmarked) [drawing 202], the GI50 with Capan-2 (setting [9]) came out at 14 µM; with MiaPaCa2 (setting [12]), 12 µM; with CFpac-1 (setting [13]), 13.7 µM.

With `COC(=O)[C@H](Cc1ccccc1)NC(=O)COCC1=C[C@@H](C(C)(C)C)N(S(=O)(=O)c2ccccc2C)[C@H]1c1ccc(Cl)cc1`, the concentration for 50% growth inhibition (GI50) in the assay with Jurkat cells (setting [2]) came out at 3.51 µM; in the assay with MCF10a (setting [7]), 20 µM; with K562 cells (setting [10]), 6.01 µM; with MCF7 (setting [11]), 6.78 µM. For the same compound, the IC50 at GGTase-I (setting [4]) was determined as 2.1 µM.

Consider `Cc1ccccc1S(=O)(=O)N1[C@@H](c2ccc(Cl)cc2)C(C(=O)N[C@@H](CC(C)C)C(N)=O)=C[C@H]1C(C)(C)C` [drawing 156], for which the GI50 in the assay with Jurkat cells (setting [2]) is 6.58 µM; in the assay on MDA-MB-231 (Homo sapiens, MDA-MB-231, Tables 8-15) it was 6.68 µM; in the assay on BT474 (setting [6]) it was 5.28 µM; in the assay on K562 cells (setting [10]), 6.7 µM. Moreover, on GGTase-I (setting [4]), the IC50 is 8.1 µM.

These data come from patent publication US8815935B2, “Inhibitors of protein prenyltransferases” (The Regents of the University of California, priority 2008, dated 2014).
